Laboratory results published in US11434250B2, “Pyrazolo[1,5a]pyrimidine derivatives as IRAK4 modulators” (Genentech, Inc., priority 2017, dated 2022).
Values after ≈ are worked out from the molar mass of the structure shown.

What was measured:
Kinetic solubility assay = assay type: physicochemical; details: for solubility kinetic at 24 h: PBS buffer with 2% DMSO, aqueous buffer, kinetic from dmso stock, PBS buffer pH 7.4, 2% DMSO, 24 hours shaking at room temperature, UHPLC-CLND; for Fold improvement in kinetic solubility: example compound versus its matched pair phenyl compound
Protocol: The kinetic solubility assay started with compound DMSO stock solutions. This assay used Millipore Multiscreen 96-well filter plates for the 24 hour equilibration shaking. Samples were prepared by adding 4 μL of the 10 mM compound DMSO stock solutions into 196 μL of PBS buffer pH 7.4 in the 96-well filter plates, yielding a compound concentration of 200 μM and 2% DMSO. The filter plate was sealed with aluminum sealing film and shaken at room temperature for 24 hours at 1000 rpm. When shaking has completed, the solutions were filtered into a clean 96-well plate utilizing a vacuum manifold. After filtration, some precipitate is often observed at the bottom of the filtration plate wells. Most of the precipitates appear to be crystalline under a polarizing light microscope. The filtrate samples were diluted by a factor of 2 using PBS pH7.4 buffer and then transferred to a 384-well plate for analysis by UHPLC-CLND (CLND: Chemiluminescence nitrogen detector). 5 μL of each sample was injected twice into the UHPLC-CLND for two repeat analysis.
Samples were detected and analyzed using UV 254 nm and CLND. UV 254 nm is used primarily to confirm the sample purity but in rare cases, is also used to quantify the concentration of compounds with no nitrogens, where additional work is done to create a compound specific calibration curve. The identification of CLND target peaks of each compound were confirmed by LCMS. Sample quantification was accomplished by CLND peak intensity, the calibration curve, and the number of nitrogen contained in the compound. One calibration curve of caffeine was used for solubility quantitative determination. A fresh calibration curve was created for every batch. The number of nitrogens in a compound used for this quantification was corrected for the actual configuration of the nitrogen in the compound.

[1] = Plasma protein binding using rapid equilibrium dialysis (RED); assay type: in vitro ADME; details: pH 7.4, human plasma, 37° C., read-out: Human PPB (converted)
Protocol: Plasma protein binding was measured in duplicate using rapid equilibrium dialysis (RED) device ((Thermo Scientific Pierce) in a 96-well format. Briefly, 10.0 μL drug or control compounds (0.5 mM in DMSO) was mixed with 1000 μL plasma (pH adjusted to 7.4) from various species (BioreclamationIVT). Aliquots of 300 μL drug/plasma mixture were placed into the donor side chamber of a single-use RED plate, and 500 μL aliquots of PBS buffer were placed into the adjacent chamber as the receiver side. The plate was incubated on an orbital shaker at 400 rpm, at 37° C. for 4 hours. After completion of incubation, 50 μL aliquots from the PBS buffer side were mixed with 5 μL of blank plasma matrix, and 5 μL from the donor side (plasma) were mixed with 50 μL blank PBS buffer. All samples were then crashed with 200 μL acetonitrile (containing internal standard) to precipitate plasma proteins. The samples were centrifuged at 3750 rpm for 10 min to pellet the proteins. The supernatants were carefully transferred to a fresh 96-well plate, and diluted with an equivalent volume of water. The samples were then analyzed by LC-MS/MS (ABI 4000, ABI Sciex). Data acquisition and processing was performed with Analyst 1.6.1 and Multiquant 2.1. The percent of protein binding and fraction unbound (fu) in matrix was calculated from taking the ratio of responses (peak areas) on the receiver side (buffer) to those on the donor side (plasma). The ratios were normalized to the internal standard.

human IRAK4 = human IRAK4 (Homo sapiens (Human), UniProt Q9NWZ3); experiment: IRAK4 enzymatic assay (Transcreener fluorescence polarization, ADP detection); assay type: biochemical; details: recombinant full-length IRAK4; 125 uM ATP; 90 min
Chain of human IRAK4 (Q9NWZ3 whole entry, the tested form may be a part): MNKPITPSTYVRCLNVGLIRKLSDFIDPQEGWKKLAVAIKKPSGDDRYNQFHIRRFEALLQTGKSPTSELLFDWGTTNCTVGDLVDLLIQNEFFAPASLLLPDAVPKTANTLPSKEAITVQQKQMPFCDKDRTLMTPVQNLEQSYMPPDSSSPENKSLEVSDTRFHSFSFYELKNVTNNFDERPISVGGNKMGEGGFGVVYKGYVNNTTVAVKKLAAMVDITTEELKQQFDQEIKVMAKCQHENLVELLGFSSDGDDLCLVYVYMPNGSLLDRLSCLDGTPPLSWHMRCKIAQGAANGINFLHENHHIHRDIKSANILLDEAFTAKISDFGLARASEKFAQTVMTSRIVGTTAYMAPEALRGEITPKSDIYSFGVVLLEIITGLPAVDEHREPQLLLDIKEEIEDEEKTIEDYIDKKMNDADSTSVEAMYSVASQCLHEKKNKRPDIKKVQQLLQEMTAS
Protocol: Compounds were assayed for inhibition of human IRAK4 and IRAK1 catalytic activity using recombinant enzyme produced from insect cells. Full-length IRAK4 protein, carrying an N-terminal His6-Tag, was obtained from Life Technologies (Carlsbad, Calif., USA). The IRAK1 construct was produced internally and was comprised of IRAK1 residues Arg194 to Ser712, preceded by an NH2-terminal His6 tag and the coding sequence for glutathione-S-transferase.
Kinase activities were assayed using the Transcreener-Fluorecescence polarization platform (BelBrook Labs, Madison, Wis., USA) that measures amounts of the reaction product, ADP. […] Final IRAK4 assay conditions were 1.25 nM IRAK4; 125 uM ATP; 10 uM MgC2; 125 uM peptide in reaction buffer (25 mM HEPES (pH7.4); 2 mM Dithiothreitol; 0.015% Brij-35; and 0.5% dimethyl sulfoxide. The IRAK1 activity was optimized similarly, yielding final assay conditions of […] IRAK1; 62.5 uM ATP; 5 uM MgCl2, and 62.5 uM IRAK1 peptide in reaction buffer for 60 min.
Assays of compounds for kinase inhibition were performed using inhibitors serially-diluted in dimethyl sulfoxide, which was accomplished with a LabCyte Echo 555 liquid dispenser. 384 well assay plates spotted with compound received 4 ul of a 2× substrate (ATP+peptide) mix in reaction buffer, followed by 4 ul of 2× enzyme diluted in reaction buffer. Reactions were halted at 60 (IRAK1) or 90 (IRAK4) min by addition of 6 ul of detection buffer, containing EDTA ([…] final concentration), 0.95 ug of the ADP-binding antibody ADP2, ADP tracer (3 nM final concentration), and […] HEPES. Following a 1 hr incubation, fluorescence polarization of the ADP2-antibody::TRACER complex was read on a Tecan M1000 plate reader using a 635/20 excitation filter in combination with a 670/20 emission filter. Delta milli-P values were analyzed using Genedata software to fit dose-response curves and compute compound Ki values, using ATP Km values of 642 um and 83.2 uM for IRAK4 and IRAK1, respectively. Table 3 provides IRAK4 Ki values for representative compounds of the present invention.

Compound | solubility kinetic at 24 h (Kinetic solubility assay) [µM] | Fold improvement in kinetic solubility (Kinetic solubility assay) | fraction unbound at 4 h, 5 µM [1] | Ki (human IRAK4) [nM]
CC1(C)Cc2cc(NC(=O)c3cnn4cccnc34)c(N3CCN(CC(N)=O)CC3)nc2O1 [Example 6, N-[6-[4-(2-amino-2-oxo-ethyl)piperazin-1-yl]-2,2-dimethyl-3H-furo[2,3-b]pyridin-5-yl]pyrazolo[1,5-a]pyrimidine-3-carboxamide] | 143 (≈ 64.4 µg/mL) | 14.6 | 0.226 | 4
CC1(C)Cc2cc(NC(=O)c3cnn4cccnc34)c(N3CCN(CC(F)F)CC3)nc2O1 [Example 9, N-(6-(4-(2,2-Difluoroethyl)piperazin-1-yl)-2,2-dimethyl-2,3-dihydrofuro[2,3-b]pyridin-5-yl)pyrazolo[1,5-a]pyrimidine-3-carboxamide] | 137 (≈ 62.7 µg/mL) | 137.0 | 0.123 | 7.6
